# From US6908899B2, “Pro-inflammatory fibrinopeptide” (U.S. Dept. of Veterans Affairs, priority 2001, dated 2005)
# Where no end group is shown, it is not given here. [ ]: non-standard residue; d: D form. Pen = CC(C)(S)[C@H](N)C(=O)O
# Tests used:
# OA synovial cells = assay: PDTC inhibition of IL-1 and GPRP induction of ICAM-1 (ELISA); type: cell-based, human; details: PDTC pre-incubation 1.5 hours, IL-1 or GPRP overnight, ± SD, triplicate
# Description: (§1) NF-kappaB activation is already well known to affect a broad array of immediate-early gene products, such as TNF, interleukins, chemokines and colony stimulating factors; genes that are tightly regulated during inflammation and wound healing. […] PDTC is an anti-oxidant that prevents NF-kappaB activation and its translocation to the nucleus (Reference 26). […] [table]
# RA synovial cells = assay: as above; type: cell-based, human; details: for ICAM-1 O.D. 492: PDTC pre-incubation 1.5 hours, IL-1 or GPRP overnight, ± SD, triplicate
# Description: as §1
# RA patients = details: double blind clinical trial (Reference 29); cited from earlier work
# foreskin fibroblasts = assay: ICAM-1 cell-ELISA (O.D. 492); type: cell-based, human; details: overnight; for ICAM-1 O.D. 492: Foreskin line, IL-1 0.5 ng/ml, GPRP or GPRP-amide 1 mg/ml, fibrinogen receptor peptide 0.1 mg/ml, FPA, FPB 10^−4 M
# RA synovial fibroblasts [1] = assay: ICAM-1 cell-ELISA (O.D. 492); type: cell-based, human; details: for ICAM-1 O.D. 492: overnight, IL-1 0.5 ng/ml, GPRP or GPRP-amide 1 mg/ml, fibrinogen receptor peptide 0.1 mg/ml, FPA, FPB 10^−4 M; for Effect on ICAM-1 induction: synovial cell incubation with coagulation-related peptides
# [2] = test system: synovial cells from patients with osteoarthritis (OA); assay: ICAM-1 ELISA (O.D. 492); type: cell-based, human; details: OA line; overnight; IL-1 0.5 ng/ml, GPRP or GPRP-amide 1 mg/ml, fibrinogen receptor peptide 0.1 mg/ml, FPA, FPB 10^−4 M
# RA synovial fibroblasts [3] = assay: Binding of biotinylated peptide by flow cytometry; set-up: species or system human; details: RA #16, Avidin-FITC
# Description: Table 9 illustrates an analysis of the binding of biotinylated amino acid sequence 17-28 of human fibrinogen Aα Chain (SAC[KBtn]) to RA synovial fibroblasts by Flow Cytometry. The biotinylated control peptide (KREE-SEQ ID NO:3) represents corresponding sequences derived from the B/beta chain of fibrinogen following removal of Fibrinopeptide B.
# fibrin polymerization = details: cited from earlier work
# Synovial cells = assay: SAC competition assay by flow cytometry; type: binding, human; details: for Mean (fluorescence of bound SAC[KBtn]): Avidin-FITC
# Description: Thus, labeled peptide could facilitate the isolation, identification and characterization of its receptor, through standard immunological techniques such as immunohistochemistry, flow cytometry and immunoprecipitation.
# [4] = test system: foreskin fibroblast cells; assay: In vitro T cell adhesion assay; type: cell-based, human; details: Foreskin line; IL-1 beta 1 ng/ml overnight; ± SD, triplicate wells
# [5] = test system: RA derived synovial cells; assay: In vitro T cell adhesion assay; type: cell-based, human; details: IL-1 beta 1 ng/ml overnight, ± SD, triplicate wells
# [6] = test system: OA derived synovial cells; assay: In vitro T cell adhesion assay; type: cell-based, human; details: OA line 15; IL-1 beta 1 ng/ml overnight; ± SD, triplicate wells
# monocytes = monocytes stimulated with PHA; for comparison; cited from earlier work
# RA synovial fibroblasts [7] = assay: GRO-alpha ELISA on cell culture supernatants; type: cell-based, human; details: RA line 7
# Description: I used commercial ELISA kits to assay cell culture supernatants of RA fibroblasts that were cultured for both 24 and 48 hours with or without peptide.
# [8] = unlabeled competitor 2.5 mg for 3 hours, then labeled SAC[KBtn] for 1 hour
# Sequence of fibrin polymerization (P02679 27-453, one chain of several): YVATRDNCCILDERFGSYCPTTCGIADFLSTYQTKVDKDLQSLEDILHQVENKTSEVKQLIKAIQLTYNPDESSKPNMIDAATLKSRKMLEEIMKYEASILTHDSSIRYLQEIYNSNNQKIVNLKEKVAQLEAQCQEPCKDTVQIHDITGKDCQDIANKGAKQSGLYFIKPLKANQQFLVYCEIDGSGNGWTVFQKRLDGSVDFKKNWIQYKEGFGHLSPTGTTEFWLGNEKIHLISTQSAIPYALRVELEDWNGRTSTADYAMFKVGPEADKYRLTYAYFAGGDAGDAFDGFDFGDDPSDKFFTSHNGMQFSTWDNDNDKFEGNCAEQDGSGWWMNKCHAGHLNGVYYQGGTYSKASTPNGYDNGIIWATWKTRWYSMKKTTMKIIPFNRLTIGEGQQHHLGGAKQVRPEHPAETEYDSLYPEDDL
# Sequence of fibrin polymerization (P02671 20-639 isoform P02671-2 partner limits assumed, one chain of several): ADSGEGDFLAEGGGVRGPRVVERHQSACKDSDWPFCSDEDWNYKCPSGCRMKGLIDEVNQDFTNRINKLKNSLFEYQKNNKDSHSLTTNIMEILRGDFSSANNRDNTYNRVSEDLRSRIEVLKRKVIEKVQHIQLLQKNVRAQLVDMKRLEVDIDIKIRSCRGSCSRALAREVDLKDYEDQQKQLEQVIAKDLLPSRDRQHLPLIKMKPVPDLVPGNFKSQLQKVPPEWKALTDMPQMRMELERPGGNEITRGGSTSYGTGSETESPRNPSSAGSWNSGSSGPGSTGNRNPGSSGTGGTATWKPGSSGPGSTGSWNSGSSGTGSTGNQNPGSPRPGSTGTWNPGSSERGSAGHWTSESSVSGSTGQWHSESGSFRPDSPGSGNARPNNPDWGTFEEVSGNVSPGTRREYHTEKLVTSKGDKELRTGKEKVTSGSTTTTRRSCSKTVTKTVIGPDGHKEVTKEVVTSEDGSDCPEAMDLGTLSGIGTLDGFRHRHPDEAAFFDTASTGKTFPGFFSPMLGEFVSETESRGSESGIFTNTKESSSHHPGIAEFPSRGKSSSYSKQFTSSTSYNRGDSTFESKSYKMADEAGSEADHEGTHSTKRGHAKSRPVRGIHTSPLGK
molecule,measurement,setting,value
"S=C(S)N1CCCC1 [PDTC, pyrrolidinedithio-carbamate]",ICAM-1 O.D. 492,OA synovial cells; OA line 2,0.65 ± .03
same,ICAM-1 O.D. 492,OA synovial cells; OA line 8,0.55 ± .04
same,ICAM-1 O.D. 492,RA synovial cells; RA line 5,0.75 ± .06
same,ICAM-1 O.D. 492,RA synovial cells; RA line 6,0.61 ± .02
same,Effect on increase in ICAM-1 expression induced by Interleukin-1 and by GPRP,RA synovial cells; inclusion of PDTC,stopped the entire increase in ICAM-1 expression
C[C@]12Cc3c[nH]nc3C[C@@H]1CC[C@@H]1[C@@H]2CC[C@@]2(C)[C@H]1CC[C@]2(C)O [stanozolol],Clinical outcome in RA patients,RA patients,clinical benefit
"Ac-[Pen]RGDC (cysteine pairing not given here) [Fib. Recept. Pept., reference compound]",ICAM-1 O.D. 492,foreskin fibroblasts,0.73 ± .08
same,ICAM-1 O.D. 492,RA synovial fibroblasts [1]; RA line 1,0.56 ± .02
same,ICAM-1 O.D. 492,RA synovial fibroblasts [1]; RA line 2,0.42 ± .01
same,ICAM-1 O.D. 492,[2],0.38 ± .02
"FPA: amino acids 1 through 16 of the fibrinogen A/alpha chains cleaved off by thrombin (ADSGEGDFLAEGGGVR; Fibrinopeptide A; UniProt P02671 20-35, looked up) [reference compound]",ICAM-1 O.D. 492,foreskin fibroblasts,0.69 ± .02
same,ICAM-1 O.D. 492,RA synovial fibroblasts [1]; RA line 1,0.61 ± .05
same,ICAM-1 O.D. 492,RA synovial fibroblasts [1]; RA line 2,0.43 ± .03
same,Effect on ICAM-1 induction,RA synovial fibroblasts [1],no effect
same,ICAM-1 O.D. 492,[2],0.31 ± .005
"FPB: Fibrinopeptide B, coagulation-related peptide (QGVNDNEEGFFSAR; ends and bridges not checked; UniProt P02675 31-44, looked up) [reference compound]",ICAM-1 O.D. 492,foreskin fibroblasts,0.80 ± .02
same,ICAM-1 O.D. 492,RA synovial fibroblasts [1]; RA line 1,0.67 ± .04
same,ICAM-1 O.D. 492,RA synovial fibroblasts [1]; RA line 2,0.47 ± .02
same,Effect on ICAM-1 induction,RA synovial fibroblasts [1],no effect
same,ICAM-1 O.D. 492,[2],0.41 ± .04
"GHRPLDKKREE[KBtn] (GHRPLDKKREEK) [KREE [KBtn], biotinylated control peptide derived from the B/beta chain of fibrinogen, reference compound]",% Cells Positive,RA synovial fibroblasts [3]; 100 ug biotinylated peptide,10.6%
same,Mean Fluorescent Channel,RA synovial fibroblasts [3]; 100 ug biotinylated peptide,20.37
GPRP-amide: GPRP with the carboxyl group at the end of Pro4 changed to an amide group (OH to NH2) (GPRP-NH2),Effectiveness at inhibiting polymerization relative to H-Gly-Pro-Arg-Pro-OH,fibrin polymerization; Reference 20,approximately three and one-half
same,ICAM-1 O.D. 492,foreskin fibroblasts,0.80 ± .01
same,ICAM-1 O.D. 492,RA synovial fibroblasts [1]; RA line 1,0.65 ± .02
same,ICAM-1 O.D. 492,RA synovial fibroblasts [1]; RA line 2,0.49 ± .02
same,Induction of ICAM-1 in synovial fibroblasts,RA synovial fibroblasts [1]; amide analog substituted for GPRP,totally ineffective
same,ICAM-1 O.D. 492,[2],0.44 ± .01
GPRVVERHQSAC (Unknown. Obtained from a commercial source.),Competition with biotin-labeled SAC for binding to human synovial fibroblasts,Synovial cells; unlabeled competitor,can compete
same,Mean (fluorescence of bound SAC[KBtn]),Synovial cells; [8],36.30
GPRVVERHQSAC[KBtn] (GPRVVERHQSACK) [SAC [KBtn]],% Cells Positive,RA synovial fibroblasts [3]; 100 ug biotinylated peptide,86.3%
same,Mean Fluorescent Channel,RA synovial fibroblasts [3]; 100 ug biotinylated peptide,257.9
same,% Cells Positive,RA synovial fibroblasts [3]; 200 ug biotinylated peptide,80.0%
same,Mean Fluorescent Channel,RA synovial fibroblasts [3]; 200 ug biotinylated peptide,125.1
same,Mean (fluorescence of bound SAC[KBtn]),Synovial cells; labeled SAC[KBtn] without competitor,51.20
Gly-Pro-Arg [reference compound],Inhibition of fibrin polymerization,fibrin polymerization; literature (Reference 25),functions well as a polymerization inhibitor
"IL-1: cytokine, an inducer of ICAM-1, positive control [reference compound]",Adherent T cell numbers,[4],94 ± 16
same,ICAM-1 O.D. 492,foreskin fibroblasts,1.77 ± .13
same,ICAM-1 O.D. 492,OA synovial cells; OA line 2,1.60 ± .03
same,ICAM-1 O.D. 492,OA synovial cells; OA line 8,1.51 ± .05
same,ICAM-1 O.D. 492,RA synovial cells; RA line 5,1.88 ± .05
same,ICAM-1 O.D. 492,RA synovial cells; RA line 6,1.80 ± .04
same,Adherent T cell numbers,[5]; RA line 7,116 ± 14
same,Adherent T cell numbers,[5]; RA line 8,58 ± 21
same,ICAM-1 O.D. 492,RA synovial fibroblasts [1]; RA line 1,1.74 ± .08
same,ICAM-1 O.D. 492,RA synovial fibroblasts [1]; RA line 2,1.18 ± .03
same,Adherent T cell numbers,[6],66 ± 19
same,ICAM-1 O.D. 492,[2],1.36 ± .03
phytohemagglutinin,Increase of IL-8 production,monocytes,approximately three
Fibrinogen: plasma protein precursor of fibrin; unlabeled competitor in Table 10 (protein) chain 1: ADSGEGDFLAEGGGVRGPRVVERHQSACKDSDWPFCSDEDWNYKCPSGCRMKGLIDEVNQDFTNRINKLKNSLFEYQKNNKDSHSLTTNIMEILRGDFSSANNRDNTYNRVSEDLRSRIEVLKRKVIEKVQHIQLLQKNVRAQLVDMKRLEVDIDIKIRSCRGSCSRALAREVDLKDYEDQQKQLEQVIAKDLLPSRDRQHLPLIKMKPVPDLVPGNFKSQLQKVPPEWKALTDMPQMRMELERPGGNEITRGGSTSYGTGSETESPRNPSSAGSWNSGSSGPGSTGNRNPGSSGTGGTATWKPGSSGPGSTGSWNSGSSGTGSTGNQNPGSPRPGSTGTWNPGSSERGSAGHWTSESSVSGSTGQWHSESGSFRPDSPGSGNARPNNPDWGTFEEVSGNVSPGTRREYHTEKLVTSKGDKELRTGKEKVTSGSTTTTRRSCSKTVTKTVIGPDGHKEVTKEVVTSEDGSDCPEAMDLGTLSGIGTLDGFRHRHPDEAAFFDTASTGKTFPGFFSPMLGEFVSETESRGSESGIFTNTKESSSHHPGIAEFPSRGKSSSYSKQFTSSTSYNRGDSTFESKSYKMADEAGSEADHEGTHSTKRGHAKSRPV chain 2: QGVNDNEEGFFSARGHRPLDKKREEAPSLRPAPPPISGGGYRARPAKAAATQKKVERKAPDAGGCLHADPDLGVLCPTGCQLQEALLQQERPIRNSVDELNNNVEAVSQTSSSSFQYMYLLKDLWQKRQKQVKDNENVVNEYSSELEKHQLYIDETVNSNIPTNLRVLRSILENLRSKIQKLESDVSAQMEYCRTPCTVSCNIPVVSGKECEEIIRKGGETSEMYLIQPDSSVKPYRVYCDMNTENGGWTVIQNRQDGSVDFGRKWDPYKQGFGNVATNTDGKNYCGLPGEYWLGNDKISQLTRMGPTELLIEMEDWKGDKVKAHYGGFTVQNEANKYQISVNKYRGTAGNALMDGASQLMGENRTMTIHNGMFFSTYDRDNDGWLTSDPRKQCSKEDGGGWWYNRCHAANPNGRYYWGGQYTWDMAKHGTDDGVVWMNWKGSWYSMRKMSMKIRPFFPQQ chain 3: YVATRDNCCILDERFGSYCPTTCGIADFLSTYQTKVDKDLQSLEDILHQVENKTSEVKQLIKAIQLTYNPDESSKPNMIDAATLKSRKMLEEIMKYEASILTHDSSIRYLQEIYNSNNQKIVNLKEKVAQLEAQCQEPCKDTVQIHDITGKDCQDIANKGAKQSGLYFIKPLKANQQFLVYCEIDGSGNGWTVFQKRLDGSVDFKKNWIQYKEGFGHLSPTGTTEFWLGNEKIHLISTQSAIPYALRVELEDWNGRTSTADYAMFKVGPEADKYRLTYAYFAGGDAGDAFDGFDFGDDPSDKFFTSHNGMQFSTWDNDNDKFEGNCAEQDGSGWWMNKCHAGHLNGVYYQGGTYSKASTPNGYDNGIIWATWKTRWYSMKKTTMKIIPFNRLTIGEGQQHHLGGAKQAGDV,GRO-alpha,RA synovial fibroblasts [7],8000 pg/mL
same,GRO-alpha Fold Increase,RA synovial fibroblasts [7]; versus control,145X
same,Mean (fluorescence of bound SAC[KBtn]),Synovial cells; [8],21.63
"interferon γ: positive control for foreskin fibroblasts (protein, UniProt P01579 24-161, looked up) Interferon gamma: QDPYVKEAENLKKYFNAGHSDVADNGTLFLGILKNWKEESDRKIMQSQIVSFYFKLFKNFKDDQSIQKSVETIKEDMNVKFFNSNKKKRDDFEKLTNYSVTDLNVQRKAIHELIQVMAELSPAAKTGKRKRSQMLFRG",ICAM-1 expression O.D. 492,"foreskin fibroblasts; Foreskin fibroblasts, fibrin clots 0.6 mg/ml, GPRP 1 mg/ml or interferon γ 200 U/ml, mean ± SD",1.57 ± .13
